Experiments:
[1] = test system: Ishikawa; experiment: Inhibition of estrogen stimulation in human Ishikawa cells by alkaline phosphatase quantitation; type: functional, cell-based; details: for IC50: Homo sapiens, Ishikawa
[2] = test system: Rattus norvegicus; experiment: Inhibition of estradiol-induced increase in uterine wet weight in orally dosed Sprague-Dawley rat after 3 days; type: functional; details: po, 72 h
[3] = test system: Ishikawa; experiment: Increase in estrogen stimulation in human Ishikawa cells by alkaline phosphatase quantitation at 1 uM relative to control; type: functional
[4] = Ratio of log of drug level in brain to blood in Sprague-Dawley rat; type: ADME, tissue-based; details: read-out: logBB (converted)
[5] = Drug level in Sprague-Dawley rat plasma at 10 mg/kg, po after 6 hrs; type: ADME, organism-based; parameters: dose 10 mg/kg, route oral; details: read-out: Drug uptake
[6] = test system: Rattus norvegicus; experiment: Inhibition of estrogen stimulation in Sprague-Dawley rat at 10 mg/kg; type: functional
[7] = target: T1, Estrogen receptor (Homo sapiens, UniProt P03372)
T1 sequence (P03372 whole entry): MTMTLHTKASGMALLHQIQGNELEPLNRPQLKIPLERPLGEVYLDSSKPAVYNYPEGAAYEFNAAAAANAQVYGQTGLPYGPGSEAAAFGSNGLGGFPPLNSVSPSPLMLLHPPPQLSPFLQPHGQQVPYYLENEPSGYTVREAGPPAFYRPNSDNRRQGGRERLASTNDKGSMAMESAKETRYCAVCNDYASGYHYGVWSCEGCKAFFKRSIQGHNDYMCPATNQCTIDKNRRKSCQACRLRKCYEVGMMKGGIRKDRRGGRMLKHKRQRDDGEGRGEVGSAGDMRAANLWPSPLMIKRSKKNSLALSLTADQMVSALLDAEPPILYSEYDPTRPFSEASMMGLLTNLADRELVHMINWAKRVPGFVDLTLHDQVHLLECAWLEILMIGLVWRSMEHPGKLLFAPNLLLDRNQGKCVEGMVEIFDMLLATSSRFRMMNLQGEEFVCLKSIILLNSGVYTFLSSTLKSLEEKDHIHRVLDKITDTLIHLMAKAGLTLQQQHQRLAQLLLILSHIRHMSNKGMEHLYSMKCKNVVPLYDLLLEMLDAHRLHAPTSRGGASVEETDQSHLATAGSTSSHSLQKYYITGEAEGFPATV
Description: Displacement of [3H]estradiol from human recombinant ERalpha

[8] = target: Estrogen receptor beta (Homo sapiens, UniProt Q92731); experiment: Displacement of [3H]estradiol from human recombinant ERbeta
Chain of Estrogen receptor beta (Q92731 whole entry): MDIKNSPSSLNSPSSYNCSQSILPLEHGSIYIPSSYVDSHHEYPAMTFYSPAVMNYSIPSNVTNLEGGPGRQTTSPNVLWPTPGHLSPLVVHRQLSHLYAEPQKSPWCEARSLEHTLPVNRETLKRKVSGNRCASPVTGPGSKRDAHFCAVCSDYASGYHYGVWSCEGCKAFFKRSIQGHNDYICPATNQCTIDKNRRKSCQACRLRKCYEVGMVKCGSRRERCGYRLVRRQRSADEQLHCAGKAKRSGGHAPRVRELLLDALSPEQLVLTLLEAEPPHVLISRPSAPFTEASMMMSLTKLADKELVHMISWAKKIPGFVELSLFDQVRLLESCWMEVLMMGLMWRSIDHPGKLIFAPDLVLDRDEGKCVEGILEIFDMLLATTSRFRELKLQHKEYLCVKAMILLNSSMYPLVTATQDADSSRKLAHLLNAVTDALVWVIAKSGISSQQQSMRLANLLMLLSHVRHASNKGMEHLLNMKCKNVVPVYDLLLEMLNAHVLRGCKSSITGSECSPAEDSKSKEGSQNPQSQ

[9] = Drug level in Sprague-Dawley rat brain at 10 mg/kg, po after 6 hrs; type: ADME, organism-based; parameters: dose 10 mg/kg, route oral; details: read-out: Drug uptake
[10] = test system: Rattus norvegicus; experiment: Increase in uterine wet weight in Sprague-Dawley rat at 0.1 mg/kg; type: functional

SMILES	Efficacy [1]	IC50 [1]	ED50 [2]	Efficacy [3]	Kp [4]	concentration at 6 h [5]	ED50 [6]	inhibition in vivo at 10 mg/kg [6]	Ki [7]	Ki [8]	concentration at 6 h [9]	Fold change [10]
Oc1ccc2c(Oc3ccc(OCCN4CCCCC4)cc3)c(-c3cccc(F)c3)ccc2c1	97%	4.8 nM	0.23 mg/kg	15%	5.37	137 ng/mL	< 1 mg/kg	83%	0.18 nM	0.16 nM	730 ng/g	–
C#CC1(O)CC[C@H]2[C@@H]3CCc4cc(O)ccc4[C@H]3CC[C@@]21C (single isomer, unassigned) [ETHINYL ESTRADIOL]	–	–	–	–	–	–	–	–	–	–	–	3
CS(=O)(=O)c1ccc(-c2ccc3cc(O)ccc3c2Oc2ccc(OCCN3CCCCC3)cc2)cc1	–	–	–	–	0.155	660 ng/mL	–	–	–	–	103 ng/g	–
O=S1(=O)CCC(c2ccc3cc(O)ccc3c2Oc2ccc(OCCN3CCCCC3)cc2)CC1	93%	15.7 nM	0.34 mg/kg	27%	–	–	< 1 mg/kg	83%	1.89 nM	4.11 nM	–	–
CC(C)S(=O)(=O)c1ccc(-c2ccc3cc(O)ccc3c2Oc2ccc(OCCN3CCCCC3)cc2)cc1	96%	4.9 nM	0.37 mg/kg	11%	–	–	< 1 mg/kg	83%	0.73 nM	2.17 nM	–	–
Oc1cccc(-c2ccc3cc(O)ccc3c2Oc2ccc(OCCN3CCCCC3)cc2)c1	100%	2.1 nM	0.13 mg/kg	26%	0.269	211 ng/mL	< 1 mg/kg	83%	0.21 nM	0.36 nM	57 ng/g	–
Oc1ccc2c(Oc3ccc(OCCN4CCCCC4)cc3)c(-c3ccc(F)c(F)c3)ccc2c1	96%	3.9 nM	0.058 mg/kg	13%	8.32	418 ng/mL	< 1 mg/kg	83%	0.2 nM	0.29 nM	3490 ng/g	–
Oc1ccc2c(Oc3ccc(OCCN4CCCCC4)cc3)c(-c3ccc(F)cc3)ccc2c1	93%	3.2 nM	0.015 mg/kg	21%	17.8	151 ng/mL	< 1 mg/kg	83%	0.24 nM	0.28 nM	2690 ng/g	–
CN(C)S(=O)(=O)c1ccc(-c2ccc3cc(O)ccc3c2Oc2ccc(OCCN3CCCCC3)cc2)cc1	99%	2.8 nM	0.44 mg/kg	27%	0.427	108 ng/mL	< 1 mg/kg	83%	0.4 nM	1.69 nM	46 ng/g	–
CS(=O)(=O)C1CC=C(c2ccc3cc(O)ccc3c2Oc2ccc(OCCN3CCCCC3)cc2)CC1 (centres undefined)	99%	8 nM	0.26 mg/kg	24%	–	–	< 1 mg/kg	83%	1.09 nM	2.69 nM	–	–
CCS(=O)(=O)c1ccc(-c2ccc3cc(O)ccc3c2Oc2ccc(OCCN3CCCCC3)cc2)cc1	95%	6.1 nM	0.14 mg/kg	19%	0.12	357 ng/mL	< 1 mg/kg	83%	1.22 nM	4.19 nM	43 ng/g	–
CCS(=O)(=O)c1ccc(-c2sc3cc(O)ccc3c2Oc2ccc(OCCN3CCCCC3)cc2)cc1	95%	14.5 nM	0.56 mg/kg	16%	–	–	< 1 mg/kg	83%	–	15.7 nM	–	–
O=S1(=O)CC=C(c2ccc3cc(O)ccc3c2Oc2ccc(OCCN3CCCCC3)cc2)CC1	98%	7.2 nM	0.25 mg/kg	19%	–	–	< 1 mg/kg	83%	1.03 nM	2.1 nM	–	–
CN(C)C(=O)c1ccc(-c2ccc3cc(O)ccc3c2Oc2ccc(OCCN3CCCCC3)cc2)cc1	95%	6.7 nM	0.19 mg/kg	25%	–	–	< 1 mg/kg	83%	0.57 nM	1.16 nM	–	–
CC(C)c1ccc(-c2sc3cc(O)ccc3c2Oc2ccc(OCCN3CCCCC3)cc2)cc1	95%	16.2 nM	0.16 mg/kg	29%	–	–	< 1 mg/kg	83%	0.091 nM	0.63 nM	–	–
Oc1ccc(-c2ccc3cc(O)ccc3c2Oc2ccc(OCCN3CCCCC3)cc2)cc1	96%	4.7 nM	0.3 mg/kg	13%	0.17	277 ng/mL	< 1 mg/kg	83%	0.32 nM	0.48 nM	47 ng/g	–
N#Cc1cccc(-c2ccc3cc(O)ccc3c2Oc2ccc(OCCN3CCCCC3)cc2)c1	94%	18.5 nM	0.37 mg/kg	23%	–	360 ng/mL	< 1 mg/kg	83%	0.24 nM	0.35 nM	529 ng/g	–
CS(=O)(=O)c1ccc(-c2sc3cc(O)ccc3c2Oc2ccc(OCCN3CCCCC3)cc2)cc1	97%	22.2 nM	0.62 mg/kg	24%	–	–	< 1 mg/kg	83%	0.63 nM	13.6 nM	–	–

Reference: ChEMBL document CHEMBL1145362, “Structure-activity relationships of SERMs optimized for uterine antagonism and ovarian safety” (Bioorg Med Chem Lett, 2007)
